Literature values in US20150065426A1, “Testosterone Booster Transdermal Compositions” (Professional Compounding Centers Of America, priority 2013, published 2015).

Columns and labels:
[1] = after the use of anastrozole for about 7 days
[2] = men with elevated estradiol / hormone disorders

In the case of `CC(C)(C#N)c1cc(Cn2cncn2)cc(C(C)(C)C#N)c1` [anastrozole, Anastrozole], the “increase of natural testosterone levels” value [1] is given as no more than 60% and the estradiol levels [2] is given as “significant decrease”.
